Data on 21 compounds can be found in PubChem BioAssay AID248 (DTP/NCI, 2004).

Values joined by “and” are separate entries in the source; they are usually repeats but may differ in a detail not shown here. Equal values may be shown once. Toxic doses and inconclusive results are not listed.

The subject of the assay is L1210 leukemia ip in BDF1 mice, survival T/C. Put plainly: NCI In Vivo Anticancer Drug Screen. Data for tumor model L1210 Leukemia (intraperitoneal) in B6D2F1 (BDF1) mice. Conditions: endpoint: mean survival time, higher = longer survival. The gist of the method: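 Each compound was tested against a transplantable tumor grown in mice. The endpoint was survival, with treated animals benchmarked against vehicle controls as a simple ratio.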

[1] abbreviates: dose: 100.0 mg/kg/injection, schedule: Q04DX003 (ip), vehicle: saline with Tween-80.
[2] abbreviates: dose: 200.0 mg/kg/injection, schedule: Q04DX003 (ip), vehicle: saline with Tween-80.
[3] abbreviates: dose: 100.0 mg/kg/injection, schedule: Q01DX009 (ip), vehicle: Klucel (hydroxypropylcellulose) (HPC).
Where [4] appears, read: dose: 100.0 mg/kg/injection, schedule: Q04DX003 (ip), vehicle: Klucel (hydroxypropylcellulose) (HPC).
[5] abbreviates: dose: 200.0 mg/kg/injection, schedule: Q01DX009 (ip), vehicle: Klucel (hydroxypropylcellulose) (HPC).
Setting [6] is: dose: 200.0 mg/kg/injection, schedule: Q04DX003 (ip), vehicle: Klucel (hydroxypropylcellulose) (HPC).
The mark [7] stands for this setting: dose: 400.0 mg/kg/injection, schedule: Q01DX009 (ip), vehicle: Klucel (hydroxypropylcellulose) (HPC).
Setting [8] is: dose: 400.0 mg/kg/injection, schedule: Q04DX003 (ip), vehicle: Klucel (hydroxypropylcellulose) (HPC).
Setting [9] is: dose: 12.5 mg/kg/injection, schedule: Q01DX009 (ip), vehicle: saline.
The mark [10] stands for this setting: dose: 25.0 mg/kg/injection, schedule: Q01DX009 (ip), vehicle: saline.
[11] abbreviates: dose: 50.0 mg/kg/injection, schedule: Q01DX009 (ip), vehicle: saline.
[12] abbreviates: dose: 100.0 mg/kg/injection, schedule: Q01DX001 (ip), vehicle: saline.
The mark [13] stands for this setting: dose: 200.0 mg/kg/injection, schedule: Q01DX001 (ip), vehicle: saline.
The mark [14] stands for this setting: dose: 100.0 mg/kg/injection, schedule: Q04DX003 (ip), vehicle: saline.
Where [15] appears, read: dose: 200.0 mg/kg/injection, schedule: Q04DX003 (ip), vehicle: saline.
Where [16] appears, read: dose: 400.0 mg/kg/injection, schedule: Q01DX001 (ip), vehicle: saline.
Where [17] appears, read: dose: 400.0 mg/kg/injection, schedule: Q04DX003 (ip), vehicle: saline with Tween-80.
Where [18] appears, read: dose: 50.0 mg/kg/injection, schedule: Q01DX009 (ip), vehicle: saline with Tween-80.
[19] abbreviates: dose: 100.0 mg/kg/injection, schedule: Q01DX009 (ip), vehicle: saline with Tween-80.

Take `Cc1cc2c(cc1C)C(O)C(N1CCN(C)CC1)CCC2` (centres undefined): the T/C is 103 % of control (dose: 50.0 mg/kg/injection, schedule: Q04DX003 (ip), vehicle: saline with Tween-80); 97 % of control under setting [1]; 92 % of control under setting [2].
Turning to `Cc1cc(C)c(NC(=O)c2cccc(C(=O)Nc3c(C)cc(C)cc3C)c2)c(C)c1`, the T/C is, setting by setting: under setting [3], 102 % of control; under setting [4], 91 % of control; under setting [5], 104 % of control; under setting [6], 88 % of control; under setting [7], 96 % of control; under setting [8], 88 % of control.
In the case of `CCC(Br)Cc1ccccc1` (centres undefined), the T/C is, setting by setting: (dose: 2.0 mg/kg/injection, schedule: Q01DX015 (ip), vehicle: saline) 91 % of control; (dose: 4.0 mg/kg/injection, schedule: Q01DX015 (ip), vehicle: saline) 91 % of control; (dose: 8.0 mg/kg/injection, schedule: Q01DX015 (ip), vehicle: saline) 91 % of control; (dose: 16.0 mg/kg/injection, schedule: Q01DX015 (ip), vehicle: saline) 95 % of control.
Take `C1CN(P2(N3CC3)=NP(N3CC3)(N3CC3)=NP(N3CC3)(N3CC3)=N2)CCO1` (centres undefined): the T/C was 116 % of control and 119 % of control (dose: 6.25 mg/kg/injection, schedule: Q01DX009 (ip), vehicle: saline); 120 % of control under setting [9]; 114 % of control and 119 % of control (dose: 25.0 mg/kg/injection, schedule: Q01DX001 (ip), vehicle: saline); 156 % of control and 164 % of control under setting [10]; 99 % of control and 104 % of control and 87 % of control under setting [11]; 181 % of control and 185 % of control under setting [12]. For the same compound, the T/C under setting [13] was 89 % of control.
In the case of `NCCCn1c2ccccc2c2cnccc21`, the T/C under setting [9] was 101 % of control; the T/C under setting [10] was 101 % of control; the T/C (dose: 25.0 mg/kg/injection, schedule: Q04DX003 (ip), vehicle: water) is 87 % of control; the T/C under setting [11] was 107 % of control; the T/C (dose: 50.0 mg/kg/injection, schedule: Q01DX009 (ip), vehicle: water) was 104 % of control; the T/C (dose: 50.0 mg/kg/injection, schedule: Q04DX003 (ip), vehicle: water) is 92 % of control. Further, the T/C is, setting by setting: (dose: 100.0 mg/kg/injection, schedule: Q01DX009 (ip), vehicle: water) 103 % of control; (dose: 100.0 mg/kg/injection, schedule: Q04DX003 (ip), vehicle: water) 104 % of control and 87 % of control.
With `C=C(C)CC#N`, the T/C under setting [14] was 104 % of control and the T/C under setting [15] is 109 % of control.
Turning to `O=C(O)C1C2CC3OC(=O)C1C3C2` (centres undefined), the T/C reads like this: under setting [12], 93 % of control; (dose: 100.0 mg/kg/injection, schedule: Q01DX009 (ip), vehicle: saline) 98 % of control; under setting [1], 91 % of control; under setting [14], 97 % of control and 98 % of control; under setting [13], 94 % of control; (dose: 200.0 mg/kg/injection, schedule: Q01DX009 (ip), vehicle: saline) 87 % of control. The T/C is, setting by setting: under setting [2], 94 % of control; under setting [15], 95 % of control and 100 % of control; under setting [16], 100 % of control; (dose: 400.0 mg/kg/injection, schedule: Q01DX009 (ip), vehicle: saline) 87 % of control; under setting [17], 104 % of control; (dose: 400.0 mg/kg/injection, schedule: Q04DX003 (ip), vehicle: saline) 98 % of control and 115 % of control.
Take `CC(CC(C#CC(CC(C)CC(C)(C)C)N(C)C)N(C)C)CC(C)(C)C` (centres undefined): the T/C by setting is: under setting [3], 96 % of control; (dose: 100.0 mg/kg/injection, schedule: Q04DX002 (ip), vehicle: Klucel (hydroxypropylcellulose) (HPC)) 111 % of control; under setting [5], 93 % of control; (dose: 200.0 mg/kg/injection, schedule: Q04DX002 (ip), vehicle: Klucel (hydroxypropylcellulose) (HPC)) 93 % of control; (dose: 400.0 mg/kg/injection, schedule: Q04DX002 (ip), vehicle: Klucel (hydroxypropylcellulose) (HPC)) 90 % of control.
For the compound `CC1CCC(C)OCO1` (centres undefined), the T/C reads like this: (dose: 50.0 mg/kg/injection, schedule: Q01DX009 (ip), vehicle: acetone) 97 % of control; (dose: 100.0 mg/kg/injection, schedule: Q01DX009 (ip), vehicle: acetone) 98 % of control; (dose: 200.0 mg/kg/injection, schedule: Q01DX009 (ip), vehicle: acetone) 88 % of control.
For `Cc1cc(Br)nc2ccccc12`, the T/C was 92 % of control under setting [12], 89 % of control under setting [13] and 97 % of control under setting [16].
`C=C(C)C1CC=C(/C=N/O)CC1` (centres undefined): the T/C is, setting by setting: under setting [12], 104 % of control; (dose: 100.0 mg/kg/injection, schedule: Q01DX009 (ip), vehicle: saline sonified) 104 % of control; under setting [4], 96 % of control; under setting [13], 101 % of control; (dose: 200.0 mg/kg/injection, schedule: Q01DX009 (ip), vehicle: saline sonified) 97 % of control; under setting [6], 98 % of control. For the same compound, the T/C reads like this: under setting [16], 95 % of control; (dose: 400.0 mg/kg/injection, schedule: Q01DX009 (ip), vehicle: saline sonified) 97 % of control; under setting [8], 98 % of control.
For the compound `CC(C)(CO)CCl`, the T/C was 91 % of control under setting [18]; 95 % of control under setting [19]; 88 % of control (dose: 200.0 mg/kg/injection, schedule: Q01DX009 (ip), vehicle: saline with Tween-80).
With `CC(=O)O[C@@H]1C[C@@]2(C)[C@@H]3CC=C4[C@@H](C[C@H](O)C(=O)C4(C)C)[C@]3(C)C(=O)C[C@]2(C)[C@H]1[C@@](C)(O)C(=O)/C=C/C(C)(C)OC(C)=O`, the T/C is, setting by setting: (dose: 50.0 mg/kg/injection, schedule: Q01DX001 (ip), vehicle: saline) 102 % of control; under setting [12], 107 % of control.
With `Oc1c(-c2ccccc2)n[nH]c1-c1ccccc1`, the T/C is 98 % of control (dose: 50.0 mg/kg/injection, schedule: Q01DX009 (ip), vehicle: Klucel (hydroxypropylcellulose) (HPC)); 98 % of control under setting [3]; 94 % of control under setting [5].
On to `CCCCNC(=O)Nc1ccc(C(=O)OCC)cc1`, for which the T/C was 98 % of control under setting [3]; 95 % of control under setting [4]; 98 % of control under setting [5]; 96 % of control under setting [6]; 88 % of control under setting [7]; 94 % of control under setting [8].
As to `Cc1ccc(S(=O)(=O)OC2CCC(=O)CC2)cc1`, the T/C reads like this: (dose: 75.0 mg/kg/injection, schedule: Q01DX001 (ip), vehicle: acetone) 92 % of control; (dose: 150.0 mg/kg/injection, schedule: Q01DX001 (ip), vehicle: acetone) 97 % of control; (dose: 300.0 mg/kg/injection, schedule: Q01DX001 (ip), vehicle: acetone) 100 % of control.
For `CC1(C)CC(N=Cc2ccccc2O)CC(C)(C)N1O.CC1(C)CC(N=Cc2ccccc2O)CC(C)(C)N1O.[Pd]`, the T/C under setting [1] is 88 % of control, the T/C under setting [2] is 90 % of control and the T/C under setting [17] is 88 % of control.
With `CC1=NN(c2ccc(S(=O)(=O)O)cc2)C(=O)C1`, the T/C is, setting by setting: under setting [4], 89 % of control; under setting [6], 98 % of control; under setting [8], 91 % of control.
In the case of `CNC/C(C)=C/Br`, the T/C is, setting by setting: (dose: 100.0 mg/kg/injection, schedule: Q04DX003 (ip), vehicle: acetone) 101 % of control; under setting [1], 103 % of control; (dose: 200.0 mg/kg/injection, schedule: Q04DX003 (ip), vehicle: acetone) 92 % of control; under setting [2], 97 % of control.
As to `Cc1ccc(N)c(Br)c1`, the T/C reads like this: under setting [18], 99 % of control; under setting [19], 97 % of control.
Consider `Cc1ccc(S(=O)(=O)OC2CCCCC2c2ccccc2C)cc1` (centres undefined), for which the T/C (dose: 100.0 mg/kg/injection, schedule: Q01DX001 (ip), vehicle: steriod suspending solution) is 105 % of control; the T/C (dose: 200.0 mg/kg/injection, schedule: Q01DX001 (ip), vehicle: steriod suspending solution) was 112 % of control; the T/C (dose: 400.0 mg/kg/injection, schedule: Q01DX001 (ip), vehicle: steriod suspending solution) was 98 % of control.
